BigSolDB 2.1

CC(C)(C)OC(=O)N[C@@H](CC(=O)O)Cc1cc(F)c(F)cc1F
solubility (mole fraction)
Details	in THF	in ethanol	in ethyl acetate	in methanol	in n-butanol	in n-propanol
280.15 K	0.0933	0.036	0.0409	0.053	0.0274	0.0312
285.15 K	0.105	0.042	0.0477	0.0582	0.0306	0.0374
290.15 K	0.116	0.0483	0.0556	0.0669	0.0353	0.0449
295.15 K	0.129	0.0559	0.0652	0.0751	0.0426	0.0522
300.15 K	0.144	0.0659	0.0773	0.085	0.0514	0.0619
305.15 K	0.163	0.0754	0.089	0.097	0.0619	0.0718
310.15 K	0.187	0.0894	0.104	0.111	0.0735	0.0847
315.15 K	0.215	0.103	0.121	0.129	0.0868	0.0985
320.15 K	0.244	0.125	0.14	0.151	0.103	0.116
325.15 K	0.279	0.147	0.164	0.178	0.126	0.139
330.15 K	0.322	0.173	0.188	0.211	0.154	0.162
